According to ChEMBL document CHEMBL1157315, “Saponins from Polygala japonica and their effects on a forced swimming test in mice” (2006):

Columns and labels:
Mus musculus [1] = experiment: Antidepressant activity in ICR mouse assessed as reduction in immobility time of forced swimming at 10 mg/kg, po administered once daily for 5 days by forced swimming test relative to control; assay type: functional; set-up: scale not given: the % may be the effect or the level left
Mus musculus [2] = experiment: Antidepressant activity in ICR mouse assessed as reduction in immobility time of forced swimming at 100 mg/kg, po administered once daily for 5 days by forced swimming test relative to control; assay type: functional; set-up: scale not given: the % may be the effect or the level left

Compound | Activity (Mus musculus [1]) [%] | Activity (Mus musculus [2]) [%]
CNCCC(Oc1ccc(C(F)(F)F)cc1)c1ccccc1 (configuration not stated) [FLUOXETINE] | 50.7 | –
C[C@@H]1O[C@@H](O[C@H]2[C@H](OC(=O)[C@]34CCC(C)(C)C[C@H]3C3=CC[C@@H]5[C@@]6(C)C[C@H](O)[C@H](O)[C@@](C)(C(=O)O)[C@@H]6CC[C@@]5(C)[C@]3(C)CC4)O[C@H](CO)[C@@H](O)[C@@H]2O)[C@H](O)[C@H](O)[C@H]1O[C@@H]1OC[C@@H](O)[C@H](O)[C@H]1O [POLYGALASAPONIN E] | 35.4 | 58.1
C[C@@H]1O[C@@H](O[C@H]2[C@H](OC(=O)[C@]34CCC(C)(C)C[C@H]3C3=CC[C@@H]5[C@@]6(C)C[C@H](O)[C@H](O)[C@@](C)(C(=O)O)[C@@H]6CC[C@@]5(C)[C@]3(C)CC4)O[C@H](CO)[C@@H](O)[C@@H]2O)[C@H](O)[C@H](O[C@H]2OC[C@@](O)(CO)[C@@H]2O)[C@H]1O[C@@H]1OC[C@@H](O)[C@H](O)[C@H]1O [POLYGALASAPONIN H] | 45.8 | 51.3
C[C@@H]1O[C@@H](O[C@H]2[C@H](OC(=O)[C@]34CCC(C)(C)C[C@H]3C3=CC[C@@H]5[C@@]6(C)C[C@H](O)[C@H](O[C@@H]7O[C@H](CO)[C@@H](O)[C@H](O)[C@H]7O)[C@](C)(CO)[C@@H]6CC[C@@]5(C)[C@]3(C)CC4)O[C@H](CO)[C@@H](O[C@@H]3OC[C@@H](O)[C@H](O)[C@H]3O)[C@@H]2O[C@@H]2OC[C@](O)(CO)[C@H]2O)[C@H](O)[C@H](O)[C@H]1O [POLYGALASAPONIN V] | 16.8 | 16.6
